{"source": "patent US20100216805A1", "about": "“MODULATION OF NEUROGENESIS USING D-CYCLOSERINE COMBINATIONS” (BrainCells, Inc., priority 2009, published 2010)", "key": {"[1]": {"tested_on": "Human neural stem cells (hNSCs)", "test": "Neuronal differentiation of human neural stem cells (TUJ-1 staining), concentration response and combination index", "assay_type": "cell-based", "protocol": "Mitogen-free test media with a positive control for neuronal differentiation was used along with basal media without growth factors as a negative control.\nTo determine the most efficacious dose and dose ratio of D-cycloserine in combination with pindolol or (S)-(−)-pindolol for future preclinical and clinical studies, dose ranging studies were conducted examining synergy for neurogenesis. […] The pindolol or (S)-(−)-pindolol concentrations were varied based on the respective ratios tested. Individual dose response curves were prepared for each concentration ratio as previously described with cells stained with TUJ-1 antibody for the detection of neuronal differentiation.\nThe presence of synergy was determined by use of a combination index (CI). […] The CI is a quantitative measure of the nature of drug interactions, comparing the EC50's of two compounds, when each is assayed alone, to the EC50 of each compound when assayed in combination. The combination index (CI) is equal to the following formula: […]\nwhere C1 and C2 are the concentrations of a first and a second compound, respectively, resulting in 50% activity in neuronal differentiation when assayed in combination; and IC1 and IC2 are the concentrations of each compound resulting in 50% activity when assayed independently."}, "[2]": {"tested_on": "KA, AMPA, and NMDA iGlu receptors", "settings": "cited from earlier work"}, "[3]": {"tested_on": "Group I or Group III receptors", "settings": "at sub-mM concentrations; cited from earlier work"}, "[4]": {"target": "mGluR3 (Homo sapiens, UniProt Q14832)", "sequence (Q14832 23-879)": "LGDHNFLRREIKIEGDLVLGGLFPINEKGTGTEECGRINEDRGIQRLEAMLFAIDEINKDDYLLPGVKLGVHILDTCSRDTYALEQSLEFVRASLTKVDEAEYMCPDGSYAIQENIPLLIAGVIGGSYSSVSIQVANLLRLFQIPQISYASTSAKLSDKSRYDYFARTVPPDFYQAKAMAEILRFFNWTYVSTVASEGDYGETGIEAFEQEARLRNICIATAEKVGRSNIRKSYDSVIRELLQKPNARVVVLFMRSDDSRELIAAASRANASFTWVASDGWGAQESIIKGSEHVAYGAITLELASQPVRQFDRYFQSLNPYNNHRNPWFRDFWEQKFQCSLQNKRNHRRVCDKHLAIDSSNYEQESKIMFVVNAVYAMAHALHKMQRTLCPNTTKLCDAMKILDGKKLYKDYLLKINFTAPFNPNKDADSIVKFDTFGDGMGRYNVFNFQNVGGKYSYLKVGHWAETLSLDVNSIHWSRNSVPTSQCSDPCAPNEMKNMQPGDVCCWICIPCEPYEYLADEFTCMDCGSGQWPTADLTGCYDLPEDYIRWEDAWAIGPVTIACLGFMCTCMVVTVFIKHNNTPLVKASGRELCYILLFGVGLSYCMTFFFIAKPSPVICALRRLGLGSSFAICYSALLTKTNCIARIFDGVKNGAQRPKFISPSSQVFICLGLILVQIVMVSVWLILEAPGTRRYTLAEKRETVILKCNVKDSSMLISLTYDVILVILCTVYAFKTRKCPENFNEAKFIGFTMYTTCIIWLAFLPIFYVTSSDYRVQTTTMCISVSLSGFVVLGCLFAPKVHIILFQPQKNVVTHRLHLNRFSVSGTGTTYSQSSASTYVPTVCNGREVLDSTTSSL", "settings": "read-out: IC50 against mGluR3; cited from earlier work"}, "[5]": {"target": "mGluR2 (Homo sapiens, UniProt Q14416)", "sequence (Q14416 19-872)": "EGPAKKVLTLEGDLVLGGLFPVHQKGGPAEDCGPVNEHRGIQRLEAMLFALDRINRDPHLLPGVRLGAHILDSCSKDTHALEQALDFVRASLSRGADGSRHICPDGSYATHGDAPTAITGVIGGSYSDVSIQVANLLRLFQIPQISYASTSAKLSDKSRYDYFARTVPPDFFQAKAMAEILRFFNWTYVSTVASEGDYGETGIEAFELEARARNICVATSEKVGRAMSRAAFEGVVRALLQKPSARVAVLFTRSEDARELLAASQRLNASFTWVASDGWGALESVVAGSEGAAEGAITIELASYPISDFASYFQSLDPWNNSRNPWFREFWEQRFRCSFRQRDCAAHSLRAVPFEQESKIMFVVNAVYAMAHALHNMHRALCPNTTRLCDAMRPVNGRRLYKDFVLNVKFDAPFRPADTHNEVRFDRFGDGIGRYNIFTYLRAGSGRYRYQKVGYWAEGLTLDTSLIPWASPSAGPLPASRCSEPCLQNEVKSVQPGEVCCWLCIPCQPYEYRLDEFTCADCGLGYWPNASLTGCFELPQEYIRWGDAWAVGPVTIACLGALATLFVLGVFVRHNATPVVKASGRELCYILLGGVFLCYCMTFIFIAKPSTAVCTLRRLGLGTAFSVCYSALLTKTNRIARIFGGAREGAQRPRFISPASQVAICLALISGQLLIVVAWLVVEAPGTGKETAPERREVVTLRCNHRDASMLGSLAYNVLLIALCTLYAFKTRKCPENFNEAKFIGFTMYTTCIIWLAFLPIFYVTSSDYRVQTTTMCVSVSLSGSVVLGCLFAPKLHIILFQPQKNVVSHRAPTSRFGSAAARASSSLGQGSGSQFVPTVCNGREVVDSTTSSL", "settings": "read-out: IC50 against mGluR2; cited from earlier work"}, "[6]": {"target": "human mGlu3 (Homo sapiens, UniProt Q14832)", "sequence (Q14832 23-879)": "as the sequence (Q14832 23-879) above", "settings": "in vitro; low nanomolar range; read-out: EC50 against human mGlu3 receptor; cited from earlier work"}, "[7]": {"target": "human mGlu2 (Homo sapiens, UniProt Q14416)", "sequence (Q14416 19-872)": "as the sequence (Q14416 19-872) above", "settings": "in vitro; low nanomolar range; read-out: EC50 against human mGlu2 receptor; cited from earlier work"}, "[8]": {"settings": "Homo sapiens, Neural stem cell, agent run independently, % of neuronal positive control, basal media subtracted, figure legends, read-out: EC50 when used alone, neuronal differentiation"}}, "note": "Values joined by “and” are separate entries in the source; they are usually repeats but may differ in a detail not shown here. Equal values may be shown once. Read-outs that look alike come from different tables or passages of the source.", "data": [{"smiles": "CC(C)NC[C@H](O)COc1cccc2[nH]ccc12", "note": "[(S)-(−)-Pindolol]", "values": [{"measurement": "EC50", "setting": "[1]; Table 2, (S)-(−)-pindolol alone, run with the ratio of that row, read-out: Solo EC50's (S)-(−)-Pindolol", "value": "2.8 µM and 1.82 µM and 1.78 µM"}, {"measurement": "EC50", "setting": "[1]; agent run independently, % of neuronal positive control, basal media subtracted, figure legends, read-out: EC50 when used alone, neuronal differentiation", "value": 1.8, "unit": "µM"}]}, {"smiles": "CCC(=O)c1c(O)cc(O)cc1O", "note": "[flopropione]", "values": [{"measurement": "EC50", "setting": "[1]; [8]", "value": 16.6, "unit": "µM"}]}, {"smiles": "CC1(C)O[C@@H]2[C@@H](CO[C@@]3(COS(N)(=O)=O)OC(C)(C)O[C@@H]23)O1", "note": "[topiramate]", "values": [{"measurement": "EC50", "setting": "[1]; [8]", "value": 7.1, "unit": "µM"}]}, {"smiles": "N[C@](CC1c2ccccc2Oc2ccccc21)(C(=O)O)[C@H]1C[C@@H]1C(=O)O", "note": "[LY341495, (2S)-2-amino-2-(1S,2S-2-carboxycycloprop-1-yl)-3-(xanth-9-yl) propanoic acid]", "values": [{"measurement": "activity against KA, AMPA, and NMDA iGlu receptors", "setting": "[2]", "value": "substantially inactive"}]}, {"smiles": "CC(C)(C)NCC(O)COc1cccc2c1CC(O)C(O)C2", "note": "(centres unmarked) [nadolol]", "values": [{"measurement": "EC50", "setting": "[1]; [8]", "value": 6.7, "unit": "µM"}]}, {"smiles": "Nc1nc2ncc(CNc3ccc(C(=O)N[C@@H](CCC(=O)O)C(=O)O)cc3)nc2c(=O)[nH]1", "note": "[folic acid]", "values": [{"measurement": "EC50", "setting": "[1]; [8]", "value": 1.09, "unit": "µM"}]}, {"smiles": "NC1(C(=O)O)CCc2cc(P(=O)(O)O)ccc21", "note": "(racemic) [APICA, (RS)-1-amino-5-phosphonoindan-1-carboxylic acid]", "values": [{"measurement": "activity against Group I or Group III receptors", "setting": "[3]", "value": "no appreciable activity"}, {"measurement": "IC50", "setting": "[4]", "value": "~30", "unit": "µM"}, {"measurement": "IC50", "setting": "[5]", "value": "~30", "unit": "µM"}]}, {"smiles": "CC(C)NCC(O)COc1cccc2[nH]ccc12", "note": "(centres unmarked) [Pindolol]", "values": [{"measurement": "EC50", "setting": "[1]; Homo sapiens, Neural stem cell, Table 1, pindolol alone, run with the ratio of that row, read-out: Solo EC50's Pindolol", "value": 1.43, "unit": "µM"}, {"measurement": "EC50", "setting": "[1]; [8]", "value": 1.4, "unit": "µM"}, {"measurement": "EC50", "setting": "[1]; Table 1, pindolol alone, run with the ratio of that row, read-out: Solo EC50's Pindolol", "value": "1.32 µM and 1.98 µM and 1.65 µM"}]}, {"smiles": "N[C@@]1(C(=O)O)CO[C@H]2[C@H](C(=O)O)[C@H]21", "note": "[LY379268, (−)-2-Oxa-4-aminobicyclohexane-4,6-dicarboxylic acid]", "values": [{"measurement": "EC50", "setting": "[6]", "value": "< 0.01", "unit": "µM"}, {"measurement": "EC50", "setting": "[7]", "value": "< 0.01", "unit": "µM"}]}, {"smiles": "COCCOC(=O)C1=C(C)NC(C)=C(C(=O)OC(C)C)C1c1cccc([N+](=O)[O-])c1", "note": "(centres unmarked) [nimodipine]", "values": [{"measurement": "EC50", "setting": "[1]; [8]", "value": 100, "unit": "µM"}]}, {"smiles": "CC(CCc1ccccc1)NCC(O)c1ccc(O)c(C(N)=O)c1", "note": "(centres unmarked) [labetalol]", "values": [{"measurement": "EC50", "setting": "[1]; [8]", "value": 5.5, "unit": "µM"}]}, {"smiles": "N[C@@H]1CONC1=O", "note": "[D-cycloserine, (4R)-4-amino-1,2-oxazolidin-3-one]", "values": [{"measurement": "EC50", "setting": "[1]; Homo sapiens, Neural stem cell, Table 1, D-cycloserine alone, run with the ratio of that row, read-out: Solo EC50's D-cycloserine", "value": 7.91, "unit": "µM"}, {"measurement": "EC50", "setting": "[1]; Homo sapiens, Neural stem cell, Table 2, D-cycloserine alone, run with the ratio of that row, read-out: Solo EC50's D-cycloserine", "value": 5.62, "unit": "µM"}, {"measurement": "EC50", "setting": "[1]; Table 1, D-cycloserine alone, run with the ratio of that row, read-out: Solo EC50's D-cycloserine", "value": "8.48 µM and 7.41 µM"}, {"measurement": "EC50", "setting": "[1]; Table 2, D-cycloserine alone, run with the ratio of that row, read-out: Solo EC50's D-cycloserine", "value": 8.48, "unit": "µM"}]}, {"smiles": "NC(=O)C[S+]([O-])C(c1ccccc1)c1ccccc1", "note": "(centres unmarked) [modafinil]", "values": [{"measurement": "EC50", "setting": "[1]; Homo sapiens, Neural stem cell, read-out: EC50 when used alone, neuronal differentiation", "value": 11, "unit": "µM"}]}, {"smiles": "CC(=O)N[C@@H](CS)C(=O)O", "note": "[N-acetyl-L-cysteine]", "values": [{"measurement": "EC50", "setting": "[1]; [8]", "value": 114, "unit": "µM"}]}]}
